The experiment has as its target T1, human α-synuclein (Homo sapiens, UniProt P37840).
T1 construct: the full-length gene for untagged human α-synuclein was inserted; made in house; host or cells: E. coli BL21(DE3), plasmid derived from pT7 or pET11a
Briefly: Cell-free Thioflavin T assay of α-synuclein aggregation (αSyn ThT Assay). Format: biochemical. The note with it: αSyn 50 μM, compounds at 100 μM. Summed up: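 Untagged full-length human α-synuclein from E. coli, 50 μM, with 20-40 μM ThT, 1% DMSO, compound at 20-100 μM and a glass bead, 37° C. with shaking. Fluorescence (ex 438/em 495 nm) read hourly to 73 h. Compound-only background subtracted and values normalised to vehicle at 36-72 h or final timepoint, giving % inhibition.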

Setting [1] is: mean % inhibition of αSyn aggregation relative to DMSO control, read-out: αSyn ThT Assay % Inhibition.
Setting [2] is: class symbol, read-out: αSyn ThT Assay % Inhibition (activity range).

Each structure is given as a SMILES string. Read-outs that look alike come from different tables or passages of the source.

With `O=C(O)C1CSc2c(-c3cccc(C(F)(F)F)c3)c(Cc3cccc4ccccc34)cc(=O)n21` (single isomer, unassigned) [Compound 011a, 7-(naphthalen-1-ylmethyl)-5-oxo-8-(3-(trifluoromethyl)phenyl)-2,3-dihydro-5H-thiazolo[3,2-a]pyridine-3-carboxylic acid], the inhibition (commonly the drop in the measured response relative to a control, in per cent) at 100 µM by setting is: under setting [1], 13%; under setting [2], 11 to 30%.

Regarding `O=C(O)C1CN(CCCO)S(=O)(=O)c2c(-c3cccc(C(F)(F)F)c3)c(Cc3cccc4ccccc34)c(NC3CCCC3)c(=O)n21` (stereo not drawn) [Compound 120, 7-(cyclopentylamino)-2-(3-hydroxypropyl)-8-(naphthalen-1-ylmethyl)-6-oxo-9-(3-(trifluoromethyl)phenyl)-3,4-dihydro-2H,6H-pyrido[1,2-e][1,2,5]thiadiazine-4-carboxylic acid 1,1-dioxide], the inhibition at 100 µM is 40% under setting [1] and 31 to 60% under setting [2].

For `CN(C)Cc1c(Cc2cccc3ccccc23)c(-c2cccc(C(F)(F)F)c2)c2n(c1=O)C(C(=O)O)CS2` (stereo not drawn) [Compound 075, 6-((dimethylamino)methyl)-7-(naphthalen-1-ylmethyl)-5-oxo-8-(3-(trifluoromethyl)phenyl)-2,3-dihydro-5H-thiazolo[3,2-a]pyridine-3-carboxylic acid], the inhibition at 100 µM is 2% under setting [1] and -10 to 10% under setting [2].

In the case of `CCN1CC(C(=O)O)n2c(c(-c3cccc(C(F)(F)F)c3)c(Cc3cccc4ccccc34)cc2=O)S1(=O)=O` (single isomer, unassigned) [Compound 015a, 2-ethyl-8-(naphthalen-1-ylmethyl)-6-oxo-9-(3-(trifluoromethyl)phenyl)-3,4-dihydro-2H,6H-pyrido[1,2-e][1,2,5]thiadiazine-4-carboxylic acid 1,1-dioxide], the inhibition at 100 µM reads like this: under setting [1], 62%; under setting [2], above 60%.

In the case of `CCCN1CC(C(=O)O)n2c(c(-c3cccc(C(F)(F)F)c3)c(Cc3cccc4ccccc34)c(NC3CCOCC3)c2=O)S1(=O)=O` (stereo not drawn) [Compound 127, 8-(naphthalen-1-ylmethyl)-6-oxo-2-propyl-7-((tetrahydro-2H-pyran-4-yl)amino)-9-(3-(trifluoromethyl)phenyl)-3,4-dihydro-2H,6H-pyrido[1,2-e][1,2,5] thiadiazine-4-carboxylic acid 1,1-dioxide], the inhibition at 100 µM was 67% under setting [1] and above 60% under setting [2].

Turning to `Nc1c(Cc2cccc3ccccc23)c(-c2cccc(C(F)(F)F)c2)c2n(c1=O)C(C(=O)O)CS2(=O)=O` (stereo not drawn) [Compound 023, 6-amino-7-(naphthalen-1-ylmethyl)-5-oxo-8-(3-(trifluoromethyl)phenyl)-2,3-dihydro-5H-thiazolo[3,2-a]pyridine-3-carboxylic acid 1,1-dioxide], the inhibition at 100 µM reads like this: under setting [1], 21%; under setting [2], 11 to 30%.

Take `CN1CC(C(=O)O)n2c(c(-c3cccc(C(F)(F)F)c3)c(Cc3cccc4ccccc34)c(C(N)=O)c2=O)S1(=O)=O` (stereo not drawn) [Compound 109, 7-carbamoyl-2-methyl-8-(naphthalen-1-ylmethyl)-6-oxo-9-(3-(trifluoromethyl)phenyl)-3,4-dihydro-2H,6H-pyrido[1,2-e][1,2,5]thiadiazine-4-carboxylic acid 1,1-dioxide]: the inhibition at 100 µM by setting is: under setting [1], 99%; under setting [2], above 60%.

As for `COc1ccc(CN2C[C@@H](C(=O)O)n3c(c(-c4cccc(C(F)(F)F)c4)c(Cc4cccc5ccccc45)cc3=O)S2(=O)=O)cc1` (single isomer, unassigned) [Compound 026a], the inhibition at 100 µM reads like this: under setting [1], 51%; under setting [2], 31 to 60%.

For the compound `NC(=O)CN1CC(C(=O)O)n2c(c(-c3cccc(C(F)(F)F)c3)c(Cc3cccc4ccccc34)cc2=O)S1(=O)=O` (stereo not drawn) [Compound 028, 2-(2-amino-2-oxoethyl)-8-(naphthalen-1-ylmethyl)-6-oxo-9-(3-(trifluoromethyl)phenyl)-3,4-dihydro-2H,6H-pyrido[1,2-e][1,2,5]thiadiazine-4-carboxylic acid 1,1-dioxide], the inhibition at 100 µM under setting [1] came to 33% and the inhibition at 100 µM under setting [2] was in the range of 31 to 60%.

For the compound `O=C(O)C1CN(CCCCCO)S(=O)(=O)c2c(-c3cccc(C(F)(F)F)c3)c(Cc3cccc4ccccc34)c(NC3CCCC3)c(=O)n21` (stereo not drawn) [Compound 122, 7-(cyclopentylamino)-2-(5-hydroxypentyl)-8-(naphthalen-1-ylmethyl)-6-oxo-9-(3-(trifluoromethyl)phenyl)-3,4-dihydro-2H,6H-pyrido[1,2-e][1,2,5]thiadiazine-4-carboxylic acid 1,1-dioxide], the inhibition at 100 µM is 38% under setting [1] and 31 to 60% under setting [2].

For `CN(C)CCN1CC(C(=O)O)n2c(c(-c3cccc(C(F)(F)F)c3)c(Cc3cccc4ccccc34)cc2=O)S1(=O)=O` (stereo not drawn) [Compound 017, 2-(2-(dimethylamino)ethyl)-8-(naphthalen-1-ylmethyl)-6-oxo-9-(3-(trifluoromethyl)phenyl)-3,4-dihydro-2H,6H-pyrido[1,2-e][1,2,5]thiadiazine-4-carboxylic acid 1,1-dioxide], the inhibition at 100 µM runs as follows: under setting [1], 53%; under setting [2], 31 to 60%.

As to `O=C(O)[C@H]1CS(=O)(=O)c2c(-c3cccc(C(F)(F)F)c3)c(Cc3cccc4ccccc34)cc(=O)n21` (single isomer, unassigned) [Compound 010b, 7-(naphthalen-1-ylmethyl)-5-oxo-8-(3-(trifluoromethyl)phenyl)-2,3-dihydro-5H-thiazolo[3,2-a]pyridine-3-carboxylic acid 1,1-dioxide], the inhibition at 100 µM is 35% under setting [1] and 31 to 60% under setting [2].

For `CC(C)N1CC(C(=O)O)n2c(c(-c3cccc(C(F)(F)F)c3)c(Cc3cccc4ccccc34)c(NC3CCCC3)c2=O)S1(=O)=O` (stereo not drawn) [Compound 123, 7-(cyclopentylamino)-2-isopropyl-8-(naphthalen-1-ylmethyl)-6-oxo-9-(3-(trifluoromethyl)phenyl)-3,4-dihydro-2H,6H-pyrido[1,2-e][1,2,5]thiadiazine-4-carboxylic acid 1,1-dioxide], the inhibition at 100 µM is, setting by setting: under setting [1], 76%; under setting [2], above 60%.

`CCCN1CC(C(=O)O)n2c(c(-c3cccc(C(F)(F)F)c3)c(Cc3cccc4ccccc34)cc2=O)S1(=O)=O` (racemic) [Compound 016, 8-(naphthalen-1-ylmethyl)-6-oxo-2-propyl-9-(3-(trifluoromethyl)phenyl)-3,4-dihydro-2H,6H-pyrido[1,2-e][1,2,5]thiadiazine-4-carboxylic acid 1,1-dioxide]: the inhibition at 100 µM under setting [1] came to 68% and the inhibition at 100 µM under setting [2] was above 60%.

For the compound `O=C(O)[C@@H]1CS(=O)(=O)c2c(-c3cccc(C(F)(F)F)c3)c(Cc3cccc4ccccc34)cc(=O)n21` (single isomer, unassigned) [Compound 010a, 7-(naphthalen-1-ylmethyl)-5-oxo-8-(3-(trifluoromethyl)phenyl)-2,3-dihydro-5H-thiazolo[3,2-a]pyridine-3-carboxylic acid 1,1-dioxide], the inhibition at 100 µM under setting [1] worked out at 41% and the inhibition at 100 µM under setting [2] fell in the range of 31 to 60%.

With `CN1CC(C(=O)O)n2c(c(-c3cccc(C(F)(F)F)c3)c(Cc3cccc4ccccc34)c(N)c2=O)S1(=O)=O` (stereo not drawn) [Compound 074, 7-amino-2-methyl-8-(naphthalen-1-ylmethyl)-6-oxo-9-(3-(trifluoromethyl)phenyl)-3,4-dihydro-2H,6H-pyrido[1,2-e][1,2,5]thiadiazine-4-carboxylic acid 1,1-dioxide], the inhibition at 100 µM was 38% under setting [1] and 31 to 60% under setting [2].

For `O=C(O)CN1CC(C(=O)O)n2c(c(-c3cccc(C(F)(F)F)c3)c(Cc3cccc4ccccc34)cc2=O)S1(=O)=O` (stereo not drawn) [Compound 018, 2-(carboxymethyl)-8-(naphthalen-1-ylmethyl)-6-oxo-9-(3-(trifluoromethyl)phenyl)-3,4-dihydro-2H,6H-pyrido[1,2-e][1,2,5]thiadiazine-4-carboxylic acid 1,1-dioxide], the inhibition at 100 µM reads like this: under setting [1], 22%; under setting [2], 11 to 30%.

In the case of `CCCCCN1CC(C(=O)O)n2c(c(-c3cccc(C(F)(F)F)c3)c(Cc3cccc4ccccc34)cc2=O)S1(=O)=O` (racemic) [Compound 025, 8-(naphthalen-1-ylmethyl)-6-oxo-2-pentyl-9-(3-(trifluoromethyl)phenyl)-3,4-dihydro-2H,6H-pyrido[1,2-e][1,2,5]thiadiazine-4-carboxylic acid 1,1-dioxide], the inhibition at 100 µM is 59% under setting [1] and 31 to 60% under setting [2].

Take `CN1CC(C(=O)O)n2c1c(-c1cccc(C(F)(F)F)c1)c(Cc1cccc3ccccc13)c(Br)c2=O` (stereo not drawn) [Compound 119, 6-bromo-1-methyl-7-(naphthalen-1-ylmethyl)-5-oxo-8-(3-(trifluoromethyl)phenyl)-1,2,3,5-tetrahydroimidazo[1,2-a]pyridine-3-carboxylic acid]: the inhibition at 100 µM by setting is: under setting [1], 41%; under setting [2], 31 to 60%.

As to `CCc1c(Cc2cccc3ccccc23)c(-c2cccc(C(F)(F)F)c2)c2n(c1=O)C(C(=O)O)CN(C1CCCCC1)S2(=O)=O` (stereo not drawn) [Compound 116, 2-cyclohexyl-7-ethyl-8-(naphthalen-1-ylmethyl)-6-oxo-9-(3-(trifluoromethyl)phenyl)-3,4-dihydro-2H,6H-pyrido[1,2-e][1,2,5]thiadiazine-4-carboxylic acid 1,1-dioxide], the inhibition at 100 µM is, setting by setting: under setting [1], 47%; under setting [2], 31 to 60%.

For the compound `CN1CC(C(N)=O)n2c(c(-c3cccc(C(F)(F)F)c3)c(Cc3cccc4ccccc34)cc2=O)S1(=O)=O` (stereo not drawn) [Compound 030, 2-methyl-8-(naphthalen-1-ylmethyl)-6-oxo-9-(3-(trifluoromethyl)phenyl)-3,4-dihydro-2H,6H-pyrido[1,2-e][1,2,5]thiadiazine-4-carboxamide 1,1-dioxide], the inhibition at 100 µM under setting [1] was 4% and the inhibition at 100 µM under setting [2] was -10 to 10%.

These data come from US20230131899A1, “INHIBITORS OF MICROBIALLY INDUCED AMYLOID” (Axial Therapeutics, Inc., priority 2020, published 2023).
